Experimental findings from paper PMC11045764, “The dual coding of a single sex pheromone receptor in Asian honeybee Apis cerana” (Communications Biology, 2024) are described below.

The subject of test [1] is T1, AcerOr11.
T1 construct: gene Or11; AcerOr11 co-expressed with AcerOrco in Xenopus laevis oocytes; with AcerOrco
In words: two-electrode voltage clamp in Xenopus oocytes (agonist, dose-response and I-V curves). It is filed as cell-based, Apis cerana. A general note: Two-electrode voltage clamp is typically applied to oocytes expressing channels or transporters.

The test system of test [2] is T1, AcerOr11. Briefly: two-electrode voltage clamp in Xenopus oocytes (inverse currents; also inhibits 9-ODA-evoked currents). It counts as cell-based, Apis cerana.

As usually defined, the EC50 is the concentration at which the effect is half-maximal. A lower EC50 goes with higher potency in that assay.

Turning to `CC(=O)CCCCC/C=C/C(=O)O` [9-ODA, 9-oxo-(E)-2-decenoic acid], in the test on AcerOr11 [1], a half-maximal response (EC50) required 0.35 nM.
With `COC(=O)c1ccc(O)cc1` [HOB, methyl p-hydroxybenzoate], the EC50 in the test with AcerOr11 [2] is 150 nM.
